Reference: patent publication US5541175A, “Cephalosporin antibiotics” (Lucky, Ltd., priority 1993, dated 1996)
≈ marks a conversion by molar mass, not a printed value. Where two headings read alike, the source gives them in different places.

How the values were obtained:
[1] = Pharmacokinetic properties in rats (blood concentration by agar well biological assay); parameters: species or system SD rats (male); details: rat, in vivo, iv, 20 mg/kg
Protocol: The pharmacokinetic properties of the compound of the present invention were determined using SD rats (.male.) weighing 230±10 g. Specifically,the test samples were injected into femoral vein in an amount of 20 mg/kg to 4 to 5 test animals. Blood was taken from femoral vein 1, 2.5, 5, 10, 20, 40, 60, 120 and 180 minutes after administration and then subjected to a biological assay using agar well method to measure the blood concentration.

Staphylococcus aureus 77 = assay: Minimum inhibitory concentration (agar 2-fold dilution); type: cell-based; details: Staphylococcus aureus; S. aureus 77; Muller-Hinton agar, 37° C., 20 hours; read-out: Minimum Inhibitory Concentration
Protocol: (§1) The minimum inhibitory concentration was determined by diluting the test compounds according to 2-fold dilution, suspending them in Muller-Hinton agar medium, inoculating 2 μl of the suspension containing the test strains having 10^7 CFU (Colony Forming Unit) per 1 ml into the medium and then culturing the test strains at 37° C. for 20 hours.

[2] = test system: Escherichia coli TEM3 3455E; assay: as above; type: cell-based; details: TEM33455E, 20 h, read-out: Minimum Inhibitory Concentration
Protocol: as §1

[3] = test system: Klebsiella aerogenes SHV-1 1976E; assay: as above; type: cell-based; details: SHV11976E, K. aerogenes SHV-1 1976E, Muller-Hinton agar, 37° C., 20 hours
Protocol: as §1

Proteus vulgaris 6059A = assay: as above; type: cell-based; details: P. vulgaris 6059A, Muller-Hinton agar, 37° C., 20 hours, read-out: Minimum Inhibitory Concentration
Protocol: as §1

[4] = test system: Klebsiella aerogenes K1 + 1082E; assay: as above; type: cell-based; details: 20 h, read-out: Minimum Inhibitory Concentration
Protocol: as §1

[5] = test system: Escherichia coli TEM7 3457E; assay: as above; type: cell-based; details: TEM73457E, 20 h, read-out: Minimum Inhibitory Concentration
Protocol: as §1

[6] = test system: Staphylococcus aureus epidermidis 887E; assay: as above; type: cell-based; details: S. aureus epidermidis 887E, Muller-Hinton agar, 37° C., 20 hours, read-out: Minimum Inhibitory Concentration
Protocol: as §1

Escherichia coli 851E = assay: as above; type: cell-based; details: E. coli 851E, Muller-Hinton agar, 37° C., 20 hours
Protocol: as §1

[7] = test system: Staphylococcus aureus 241; assay: as above; type: cell-based; details: Staphylococcus aureus; S. aureus 241; Muller-Hinton agar, 37° C., 20 hours; read-out: Minimum Inhibitory Concentration
Protocol: as §1

[8] = test system: Streptococcus faecalis 29212A; assay: as above; type: cell-based; details: Enterococcus faecalis; S. faecalis 29212A; Muller-Hinton agar, 37° C., 20 hours; read-out: Minimum Inhibitory Concentration
Protocol: as §1

Escherichia coli 10536 = assay: as above; type: cell-based; details: Escherichia coli; E. coli 10536; Muller-Hinton agar, 37° C., 20 hours; read-out: Minimum Inhibitory Concentration
Protocol: as §1

[9] = test system: Salmonella typhimurium 14028A; assay: as above; type: cell-based; details: Salmonella enterica; S. typhimurium 14028A; Muller-Hinton agar, 37° C., 20 hours; read-out: Minimum Inhibitory Concentration
Protocol: as §1

[10] = test system: Escherichia coli TEM5 3739E; assay: as above; type: cell-based; details: TEM53739E, 20 h, read-out: Minimum Inhibitory Concentration
Protocol: as §1

Escherichia coli 3190Y = assay: as above; type: cell-based; details: read-out: Minimum Inhibitory Concentration
Protocol: as §1

[11] = test system: Enterobacter cloacae IND + VE 1194E; assay: as above; type: cell-based; details: E. cloacae IND + VE 1194E, Muller-Hinton agar, 37° C., 20 hours, read-out: Minimum Inhibitory Concentration
Protocol: as §1

[12] = test system: Staphylococcus aureus giorgio; assay: as above; type: cell-based; details: read-out: Minimum Inhibitory Concentration
Protocol: as §1

[13] = test system: Staphylococcus aureus 6538P; assay: as above; type: cell-based; details: S. aureus 6538P, Muller-Hinton agar, 37° C., 20 hours, read-out: Minimum Inhibitory Concentration
Protocol: as §1

[14] = test system: Serratia marcescens 1826E; assay: as above; type: cell-based; details: S. marcescens 1826E, Muller-Hinton agar, 37° C., 20 hours, read-out: Minimum Inhibitory Concentration
Protocol: as §1

[15] = test system: Pseudomonas aeruginosa 10145; assay: as above; type: cell-based; details: Pseudomonas aeruginosa; P. aeruginosa 10145; Muller-Hinton agar, 37° C., 20 hours; read-out: Minimum Inhibitory Concentration
Protocol: as §1

Enterobacter cloacae P99 = assay: as above; type: cell-based; details: P99, 20 h, read-out: Minimum Inhibitory Concentration
Protocol: as §1

[16] = test system: Pseudomonas aeruginosa 6065; assay: as above; type: cell-based; details: Pseudomonas aeruginosa; P. aeruginosa 6065; Muller-Hinton agar, 37° C., 20 hours; read-out: Minimum Inhibitory Concentration
Protocol: as §1

[17] = test system: Citrobacter diversus 2046E; assay: as above; type: cell-based; details: Citrobacter koseri; C. diversus 2046E; Muller-Hinton agar, 37° C., 20 hours; read-out: Minimum Inhibitory Concentration
Protocol: as §1

[18] = test system: Pseudomonas aeruginosa 1912E; assay: as above; type: cell-based; details: P. aeruginosa 1912E, Muller-Hinton agar, 37° C., 20 hours, read-out: Minimum Inhibitory Concentration
Protocol: as §1

[19] = test system: Acinetobacter calcoaceticus 15473A; assay: as above; type: cell-based; details: A. calcoaceticus 15473A, Muller-Hinton agar, 37° C., 20 hours, read-out: Minimum Inhibitory Concentration
Protocol: as §1

[20] = test system: Escherichia coli TEM9 2639E; assay: as above; type: cell-based; details: TEM92639E, 20 h, read-out: Minimum Inhibitory Concentration
Protocol: as §1

[21] = test system: Escherichia coli TEM1 1193E; assay: as above; type: cell-based; details: TEM11193E, 20 h, read-out: Minimum Inhibitory Concentration
Protocol: as §1

Compound: Nc1cc(N)[n+](C/C=C/C2=C(C(=O)[O-])N3C(=O)[C@@H](NC(=O)/C(=N\O[C@H](C(=O)O)c4ccc(O)c(O)c4)c4csc(N)n4)[C@H]3SC2)cn1 [Compound I-1a, 7-[(Z)-2-(2-aminothiazol-4-yl)-2-(α-carboxy-3,4-dihydroxybenzyloxyimino)acetamido]-3-[(E)-3-(4,6-diaminopyrimidinium-1-yl)-1-propen-1-yl]-3-cephem-4-carboxylate]
- AUC [1]: 32700 ng·h/mL
- half-life [1]: 34 min
- MIC (Staphylococcus aureus 77): 4 µg/mL (≈ 5.85 µM)
- MIC [2]: 0.13 µg/mL (≈ 0.19 µM)
- MIC [3]: 0.13 µg/mL (≈ 0.19 µM)
- MIC (Proteus vulgaris 6059A): 0.063 µg/mL (≈ 0.0921 µM)
- MIC [4]: 0.063 µg/mL (≈ 0.0921 µM)
- MIC [5]: 0.13 µg/mL (≈ 0.19 µM)
- MIC [6]: 64 µg/mL (≈ 93.6 µM)
- MIC (Escherichia coli 851E): 0.031 µg/mL (≈ 0.0453 µM)
- MIC [7]: 64 µg/mL (≈ 93.6 µM)
- MIC [8]: 4 µg/mL (≈ 5.85 µM)
- MIC (Escherichia coli 10536): ≤ 0.008 µg/mL
- MIC [9]: 0.016 µg/mL (≈ 0.0234 µM)
- MIC [10]: 0.5 µg/mL (≈ 0.731 µM)
- MIC (Escherichia coli 3190Y; E. coli 3190Y, Muller-Hinton agar, 37° C., 20 hours): 0.031 µg/mL (≈ 0.0453 µM)
- MIC [11]: 4 µg/mL
- MIC ([12]; S. aureus giorgio, Muller-Hinton agar, 37° C., 20 hours): 0.5 µg/mL (≈ 0.731 µM)
- MIC [13]: 0.5 µg/mL (≈ 0.731 µM)
- MIC [14]: 0.25 µg/mL (≈ 0.366 µM)
- MIC [15]: 0.25 µg/mL (≈ 0.366 µM)
- MIC (Enterobacter cloacae P99): 32 µg/mL (≈ 46.8 µM)
- MIC [16]: 1 µg/mL (≈ 1.46 µM)
- MIC [17]: 0.13 µg/mL (≈ 0.19 µM)
- MIC [18]: 0.5 µg/mL (≈ 0.731 µM)
- MIC [19]: 1 µg/mL (≈ 1.46 µM)
- MIC [20]: 2 µg/mL (≈ 2.93 µM)
- MIC [21]: 0.031 µg/mL (≈ 0.0453 µM)

Compound: Nc1cc[n+](C/C=C/C2=C(C(=O)[O-])N3C(=O)[C@@H](NC(=O)/C(=N\O[C@H](C(=O)O)c4ccc(O)c(O)c4)c4csc(N)n4)[C@H]3SC2)cn1 [Compound I-2a, 7-[(Z)-2-(2-aminothiazol-4-yl)-2-(α-carboxy-3,4-dihydroxybenzyloxyimino)acetamido]-3-[(E)-3-(4-aminopyrimidinium-1-yl)-1-propen-1-yl]-3-cephem-4-carboxylate]
- AUC [1]: 53600 ng·h/mL
- half-life [1]: 55 min
- MIC (Staphylococcus aureus 77): 4 µg/mL (≈ 5.98 µM)
- MIC [2]: 0.063 µg/mL (≈ 0.0942 µM)
- MIC [3]: 0.5 µg/mL (≈ 0.748 µM)
- MIC (Proteus vulgaris 6059A): 0.063 µg/mL (≈ 0.0942 µM)
- MIC [4]: 0.13 µg/mL (≈ 0.194 µM)
- MIC [5]: 0.031 µg/mL (≈ 0.0464 µM)
- MIC [6]: 32 µg/mL (≈ 47.9 µM)
- MIC (Escherichia coli 851E): 0.063 µg/mL (≈ 0.0942 µM)
- MIC [7]: 128 µg/mL (≈ 191 µM)
- MIC [8]: 4 µg/mL (≈ 5.98 µM)
- MIC (Escherichia coli 10536): 0.016 µg/mL (≈ 0.0239 µM)
- MIC [9]: 0.03 µg/mL (≈ 0.0449 µM)
- MIC [10]: 0.5 µg/mL (≈ 0.748 µM)
- MIC (Escherichia coli 3190Y; 3190Y, 20 h): 0.063 µg/mL (≈ 0.0942 µM)
- MIC [11]: 1 µg/mL
- MIC ([12]; 20 h): 0.25 µg/mL (≈ 0.374 µM)
- MIC [13]: 0.5 µg/mL (≈ 0.748 µM)
- MIC [14]: 0.5 µg/mL (≈ 0.748 µM)
- MIC [15]: 0.25 µg/mL (≈ 0.374 µM)
- MIC (Enterobacter cloacae P99): 8 µg/mL (≈ 12 µM)
- MIC [16]: 4 µg/mL (≈ 5.98 µM)
- MIC [17]: 0.13 µg/mL (≈ 0.194 µM)
- MIC [18]: 0.5 µg/mL (≈ 0.748 µM)
- MIC [19]: 0.5 µg/mL (≈ 0.748 µM)
- MIC [20]: 1 µg/mL (≈ 1.5 µM)
- MIC [21]: 0.063 µg/mL (≈ 0.0942 µM)
